The first test concerns the target T1, human Cot/Tpl2 kinase (Homo sapiens, UniProt P41279).
T1 construct: human Cot/Tpl2 kinase construct encoding residues 30-398; 6His (N); made in house; host or cells: Sf9 insect cells, baculovirus system (BD Biosciences)
As to the kind of experiment: Tpl2/Cot kinase assay: GST-MEK1 phosphorylation detected by ELISA (DELFIA Eu). As to conditions: 0.4 nM Tpl2, 35 nM GST-MEK1, 50 uM ATP, 1 h at 30° C. The test is classed as biochemical. The gist of the method: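 His-tagged human Tpl2 from Sf9 cells, Ni-affinity and size-exclusion purified (monomer). 0.4 nM Tpl2 with 35 nM GST-MEK1, 50 uM ATP, MOPS pH 7.2, 1% DMSO, 1 h at 30° C; EDTA stop. MEK1 Ser217/221 phosphorylation detected by anti-phospho-MEK1 and Eu-labelled secondary ELISA; IC50 fitted.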
For orientation: ELISA stands for enzyme-linked immunosorbent assay.
T1 sequence (P41279 30-398): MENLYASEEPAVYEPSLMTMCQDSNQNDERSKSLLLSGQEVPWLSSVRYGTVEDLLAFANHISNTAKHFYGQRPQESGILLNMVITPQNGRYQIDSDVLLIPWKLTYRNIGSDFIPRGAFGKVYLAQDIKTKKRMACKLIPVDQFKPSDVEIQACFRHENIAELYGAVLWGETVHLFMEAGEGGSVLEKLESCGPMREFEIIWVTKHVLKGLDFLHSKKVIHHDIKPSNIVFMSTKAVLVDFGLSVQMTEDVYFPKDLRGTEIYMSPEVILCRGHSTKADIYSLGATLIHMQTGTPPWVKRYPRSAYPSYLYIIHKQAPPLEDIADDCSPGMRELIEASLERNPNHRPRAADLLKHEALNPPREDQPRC
Broadly, the IC50 is the concentration at which inhibition is half-maximal. As to `N#Cc1cnc2ccc(NCc3cnc(S(=O)(=O)c4ccccc4)s3)cc2c1Nc1ccc(F)c(Cl)c1` [Example 245, 4-[(3-chloro-4-fluorophenyl)amino]-6-({[2-(phenylsulfonyl)-1,3-thiazol-5-yl]methyl}amino)quinoline-3-carbonitrile], 910 nM corresponded to half-maximal inhibition (IC50). This counts as sub-micromolar.
The compound `CN(C)C(=O)c1cc(NCc2ccc(CO)o2)cc2c(Nc3ccc(F)c(Cl)c3)c(C#N)cnc12` [Example 88, 4-(3-chloro-4-fluorophenylamino)-3-cyano-6-((5-(hydroxymethyl)furan-2-yl)methylamino)-N,N-dimethylquinoline-8-carboxamide] returned a half-inhibitory concentration (IC50) of 250 nM.
Turning to `N#Cc1cnc2ccc(NCc3nccn3CC(=O)NC3CCNCC3)cc2c1Nc1ccc(F)c(Cl)c1` [Example 143, 2-(2-((4-(3-chloro-4-fluorophenylamino)-3-cyanoquinolin-6-ylamino)methyl)-1H-imidazol-1-yl)-N-(piperidin-4-yl)acetamide], half-maximal inhibition (IC50) was put at 750 nM. Compared with the last compound, the IC50 is about 3-fold higher.
As for `N#Cc1cnc2c(Br)cc(NCc3cn(CCN4C(=O)c5ccccc5C4=O)nn3)cc2c1Nc1ccc(F)c(Cl)c1` [Example 303, 8-Bromo-4-(3-chloro-4-fluoro-phenylamino)-6-({1-[2-(1,3-dioxo-1,3-dihydro-isoindol-2-yl)-ethyl]-1H-[1,2,3]triazol-4-ylmethyl}-amino)-quinoline-3-carbonitrile], the IC50 is more than 40000 nM.
Compound `CC(C)(C)Nc1c(C#N)cnc2c(Br)cc(NCc3cccc[n+]3[O-])cc12` [Example 104, 8-bromo-4-(tert-butylamino)-6-(1-oxypyridin-2-ylmethylamino)quinoline-3-carbonitrile] showed an IC50 of 1500 nM.
The same measure, in the same setting: the same measure for `CN1CCCC(n2cc(CNc3cc(Cl)c4ncc(C#N)c(Nc5ccc(F)c(Cl)c5)c4c3)nn2)CC1` (stereo not drawn) [Example 329, 8-chloro-4-[(3-chloro-4-fluorophenyl)amino]-6-({[1-(1-methylazepan-4-yl)-1H-1,2,3-triazol-4-yl]methyl}amino)quinoline-3-carbonitrile]: 4.4 nM.
On to `COc1cc(NCc2cnc[nH]2)cc2c(Nc3ccc(F)c(Cl)c3)c(C#N)cnc12` [Example 47, 4-(3-Chloro-4-fluoro-phenylamino)-6-[(3H-imidazol-4-ylmethyl)-amino]-8-methoxy-quinoline-3-carbonitrile], for which the 50% inhibitory concentration (IC50) was determined as 13 nM. Compared with the last compound, the IC50 is about 3-fold higher.
On the same count and under the same terms, the same measure for `Cc1nc2ccc(NCc3cccnc3)cc2c(Nc2ccc(F)c(Cl)c2)c1C#N` [Example 255, 4-[(3-chloro-4-fluorophenyl)amino]-2-methyl-6-[(pyridin-3-ylmethyl)amino]quinoline-3-carbonitrile]: more than 40000 nM.

Staying with this test, now noted: Table 2; Tpl2/Cot kinase, GST-MEK1 substrate, 50 uM ATP.
`CN(C)C(=O)c1cc([N+](=O)[O-])cc2c(Nc3ccc(F)c(Cl)c3)c(C#N)cnc12` [Example 395]: the IC50 was more than 40000 nM.
Same read-out and setting: then `Cn1nnc(CCNc2cc(Cl)c3ncc(C#N)c(Nc4ccc(F)c(Cl)c4)c3c2)n1` [Example 467], with 1200 nM.
`N#Cc1cnc2ccc(NCc3cccnc3)cc2c1NC1CCCC1` [Example 418]: inhibition was half-maximal at 2600 nM (IC50).
Same read-out and setting: then `CC(C)(C)OC(=O)N1CCC[C@H]1CNc1cc(Cl)c2ncc(C#N)c(Nc3ccc(F)c(Cl)c3)c2c1` [Example 618], with more than 3000 nM.

The test is the same for the next values; noted with them: Tpl2/Cot kinase, GST-MEK1 substrate, 50 uM ATP.
As for `N#Cc1cnc2c(Cl)cc(NCc3cn(CCC4CCNCC4)nn3)cc2c1Nc1ccc(F)c(Cl)c1` [Example 692], inhibition was half-maximal at 130 nM (IC50).
On to `CCN(C[C@@H]1CCCN1C(C)=O)c1cc(Cl)c2ncc(C#N)c(Nc3ccc(F)c(Cl)c3)c2c1` [Example 644], for which the half-inhibitory concentration (IC50) was more than 3000 nM.
`N#Cc1cnc2c(Br)cc(NCc3nc[nH]n3)cc2c1Nc1ccc(F)c(Cl)c1` [Example 667]: it took 110 nM to reach half-maximal inhibition (IC50).

The test is the same for the next values; noted with them: Tpl2/Cot kinase, GST-MEK1 substrate, 50 uM ATP, 1 h at 30° C.; Table 2.
Compound `N#Cc1cnc2c(Cl)cc(NCc3cn(CCC4CCN(C5CCC5)CC4)nn3)cc2c1Nc1ccc(F)c(Cl)c1` [Example 937] returned a half-inhibitory concentration (IC50) of 150 nM.
Still for that read-out and setting: the same measure for `N#Cc1cnc2c(Cl)cc(NCc3cn(C4CCN(CCO)CC4)nn3)cc2c1Nc1ccc(F)c(Cl)c1` [Example 992]: 2 nM.
On the same count and under the same terms, the same measure for `N#Cc1cnc2c(Cl)cc(NCC3CCCN(C(=O)CCl)C3)cc2c1Nc1ccc(F)c(Cl)c1` (stereo not drawn) [Example 924]: 1320 nM.

These data come from patent US20060264460A1 (Wyeth, priority 2005, published 2006).
